Experiments:
Format in all cases: toxicity, cell-based
[1] = tested on: HEK-293T; assay: Incucyte cell viability with HEK293T; conditions: human, 10 µM, compound concentration 10 uM
[2] = tested on: Fibroblast; assay: Incucyte cell viability with human fibroblast; conditions: 10 µM, compound concentration 10 uM
[3] = tested on: U2OS; assay: Incucyte cell viability with U2OS; conditions: human, 10 µM, compound concentration 10 uM
[4] = 0 h, replicate number 1, timepoint 0 hours
[5] = 24 h, replicate number 2, timepoint 24 hours
[6] = 12 h, replicate number 1, timepoint 12 hours
[7] = 18 h, replicate number 1, timepoint 18 hours
[8] = 24 h, replicate number 1, timepoint 24 hours
[9] = 6 h, replicate number 1, timepoint 6 hours
[10] = 6 h, replicate number 2, timepoint 6 hours
[11] = 18 h, replicate number 2, timepoint 18 hours
[12] = 0 h, replicate number 2, timepoint 0 hours
[13] = 12 h, replicate number 2, timepoint 12 hours
Further: filed as whole numbers so only -1 and 0 and 1 occur.

| SMILES | Growth Rate [1, 4] | Growth Rate [2, 4] | Growth Rate [2, 6] | Growth Rate [2, 7] | Growth Rate [2, 8] | Growth Rate [3, 4] | Growth Rate [3, 9] | Growth Rate [3, 6] | Growth Rate [3, 7] | Growth Rate [3, 8] | Growth Rate [1, 10] | Growth Rate [1, 6] | Growth Rate [1, 7] | Growth Rate [1, 8] | Growth Rate [2, 9] | Growth Rate [2, 11] | Growth Rate [3, 10] | Growth Rate [1, 9] | Growth Rate [2, 10] | Growth Rate [2, 13] | further results |
| --- | --- | --- | --- | --- | --- | --- | --- | --- | --- | --- | --- | --- | --- | --- | --- | --- | --- | --- | --- | --- | --- |
| C[C@@H](NC(=O)Nc1cc2[nH]ncc2c(CO)n1)c1ccccc1 [ERKi] | 0 | 0 | 1 | 1 | 0 | 0 | 0 | 0 | 0 | 0 |  |  |  |  |  |  |  |  |  |  | Growth Rate [1, 5]: 1; Growth Rate [2, 5]: 1 |
| CCOP(=O)(OCC)C(=Cc1cc(C(C)(C)C)c(O)c(C(C)(C)C)c1)P(=O)(OCC)OCC | 0 |  | 0 | 0 | 0 | 1 |  | 0 | 0 | 0 | 0 | 0 | 0 | 0 | 0 | 1 | 0 |  |  |  | Growth Rate [3, 12]: 0 |
| CC(C)NCC(O)COc1cccc2ccccc12.Cl (centres undefined) [PROPRANOLOL HYDROCHLORIDE] |  | 0 | 1 | 1 | 1 | 0 | 0 | 1 | 1 | 1 | 1 | 0 | 0 | 0 | 1 | 0 |  | 0 | 0 | 0 | Growth Rate [1, 12]: 0; Growth Rate [2, 5]: 0 |
| CCCCN(Cc1ccccc1)C(=O)c1ccc(S(=O)(=O)Nc2ccccc2)cc1 | 0 | 0 | 1 | 1 | 0 |  | 1 | 1 | 1 | 1 | 0 |  |  |  |  | 0 |  | 1 | 0 | 0 | Growth Rate [1, 13]: 1; Growth Rate [1, 5]: 1; Growth Rate [2, 12]: 1; Growth Rate [2, 5]: 1; Growth Rate [3, 11]: 0; Growth Rate [3, 5]: 0 |
| CCOC(=O)c1ncn2c1CN(C)C(=O)c1cc(F)ccc1-2 [FLUMAZENIL] | 0 | 0 |  | 1 | 1 | 1 | 0 | 0 | 0 | 0 | 0 | 1 | 1 | 1 |  | 0 |  | 1 | 0 | 0 | Growth Rate [1, 13]: 0; Growth Rate [1, 11]: 0; Growth Rate [1, 5]: 0; Growth Rate [3, 11]: 1; Growth Rate [3, 5]: 1 |
| COc1cc(OC)c(NC(=O)c2ccc(Cc3cc4c(cc3C)C(C)(C)CCC4(C)C)o2)c(OC)c1 | 1 | 0 |  | 1 | 1 | 0 |  | 1 | 1 | 0 | 1 | 0 | 0 | 0 | 0 |  | 1 | 0 |  | 1 | Growth Rate [1, 12]: 0 |
| COc1ccc(CCc2nc3cc(-c4c(C)noc4C)ccc3n2C[C@H](C)N2CCOCC2)cc1Cl |  | 0 | 1 | 1 | 1 | 1 | 0 | 1 | 1 | 1 | 1 | 1 | 0 | 0 | 1 |  |  | 0 | 0 |  | Growth Rate [1, 12]: 1; Growth Rate [1, 13]: 0; Growth Rate [1, 11]: 1; Growth Rate [3, 12]: 0 |
| CC(C)(N)C(=O)N[C@H](COCc1ccccc1)C(=O)N1CCC2(CC1)CN(S(C)(=O)=O)c1ccccc12.CS(=O)(=O)O [IBUTAMOREN MESYLATE] | 0 | 1 | 0 | 0 | 0 |  |  |  | 1 | 1 |  | 1 | 0 | 0 | 0 |  | 1 | 0 | 1 | 1 | Growth Rate [1, 11]: 1; Growth Rate [1, 5]: 1; Growth Rate [3, 13]: 1 |
| CCN(Cc1ccc(Cl)cc1)c1ncc(C(=O)NCCCN2CCCC2=O)c(NC2CCCC2)n1 | 0 |  | 1 | 1 | 1 |  | 1 | 1 | 1 | 1 |  |  |  |  | 1 |  |  |  | 0 | 0 | Growth Rate [2, 12]: 0; Growth Rate [3, 12]: 0 |
| COc1cc(C#N)ccc1S(=O)(=O)Nc1ccc2c(c1)cc(C)c(=O)n2C | 1 |  | 0 | 0 | 1 | 0 | 0 | 0 | 0 | 0 |  | 0 | 0 | 0 | 1 |  | 1 | 0 | 0 |  | Growth Rate [1, 11]: 1; Growth Rate [2, 12]: 0; Growth Rate [2, 5]: 0; Growth Rate [3, 13]: 1; Growth Rate [3, 11]: 1; Growth Rate [3, 5]: 1 |
| O=C1c2ccc(Nc3ccc(F)cc3F)cc2CCc2ccc(OC[C@H](O)CO)cc21 [Skepinone-L] |  |  | 0 | 0 | 0 | 0 | 0 | 0 | 0 | 0 |  |  |  | 1 | 0 |  |  | 0 |  |  | Growth Rate [3, 11]: 1 |
| Cc1cc2c(cc1-c1cc(/C=C/C(=O)O)ccc1O)C(C)(C)CCC2(C)C | 0 | 0 | 1 | 1 | 1 | 0 |  | 1 | 1 | 1 |  | 1 | 1 | 1 |  |  | 0 | 1 |  |  | Growth Rate [3, 13]: 0; Growth Rate [3, 11]: 0 |
| COc1ccc(Br)cc1S(=O)(=O)NC(=O)/C=C/c1ccccc1Cc1ccc2ccccc2c1 |  | 1 | 1 | 0 | 0 | 0 |  |  | 1 | 1 | 1 | 0 | 0 | 0 | 0 | 1 | 0 | 0 | 1 |  | Growth Rate [1, 12]: 0; Growth Rate [1, 13]: 1; Growth Rate [1, 11]: 1; Growth Rate [1, 5]: 1; Growth Rate [2, 12]: 0; Growth Rate [2, 5]: 1; Growth Rate [3, 13]: 1; Growth Rate [3, 5]: 0 |
| c1cc(CN2CCCNCCNCCCNCC2)ccc1CN1CCCNCCNCCCNCC1 [PLERIXAFOR] | 1 | 0 | 0 | 1 | 0 |  | 0 | 1 | 1 | 1 | 1 | 0 | 0 | 0 | 1 | 0 |  | 0 | 0 |  | Growth Rate [1, 12]: 0; Growth Rate [2, 12]: 1; Growth Rate [3, 13]: 0; Growth Rate [3, 11]: 0; Growth Rate [3, 5]: 0 |

— ChEMBL document CHEMBL4689842, “EUbOPEN Chemogenomics Library wave 1” (2021)
